{"source": "patent US6878747B2", "about": "“Systemic formulations containing beta-carotene and derivatives thereof” (priority 2001, dated 2005)", "key": {"[1]": {"test_system": "human melanoma cell cultures", "assay": "Guanosine then beta-carotene treatment of melanoma cell cultures, Example 10", "format": "cell-based", "settings": "7 days", "procedure": "Guanosine was added to McCoy's 5A modified medium at a concentration of 3 mg/ml. This supplemented medium was added to Leighton tubes after removal of an non-supplemented medium and was replaced every 2 days for 7 days. Beta-carotene in THF was added to McCoy's 5A modified medium at a concentration of 33 mg/ml with a final concentration of 0.5% THF. This supplemented medium was added to the Leighton tubes after removal of guanosine supplemented medium and was replaced every 2 days for an additional 7 day experimental period. At the end of 14 days, the cultures were fixed in methanol and the cover slips were Giemsa stained."}, "[2]": {"assay": "Soluabilization in THF, Example 12", "format": "physicochemical", "settings": "results approximate", "procedure": "All materials and sources were the same as in Example 11.The only additions were the use of 4.3 ml glass shell vials from Electron Microscopy Sciences, 10 ml glass centrifuge tubes from Fisher, and a 1.25 ml glass Hamilton syringe from Fisher.\nAll of a retinoic acid (1 gram) ampule was poured into a 10 ml glass centrifuge tube and stoppered with a silicon stopper. 7 ml of THF was added to the tube and then shaken by hand. This was performed twice.\nAll of a 1 gram ampule was poured into a 4.3 ml shell vial and stoppered with a silicon stopper. Using a 1.25 ml Hamilton syringe, 1.0 ml of THF was added to the vial and then shaken by hand. It soluabilized completely.\n10 microliters THF from a Hamilton syringe was added to a ampule containing 1 mg of 9-cis retinoic acid. It appeared that complete soluability was achieved.\nA 500 mg ampule of retinal was emptied into a 2 ml shell vial, and was completely soluabilized with hand shaking in 0.5 ml of THF."}, "[3]": {"assay": "Soluabilization in THF, Example 11", "format": "physicochemical", "settings": "hand shaking, results approximate", "procedure": "All experimental substances (retinol, retinoic acid, 9-cis retinoic acid, retinal) were from Sigma (St. Louis, Mo.). All experimental substances were provided in sealed ampules.\nThe solvent, Tetrahydrofuran (stabilized with BHT) was also from Sigma.^1\n^1 In the soluabilization experiments described in Examples 11 and 12 a small amount of yellow material appeared on the bottom of the stopper. In addition, since THF is somewhat volatile, the results are approximate.\n2 ml shell vials from Electron Microscopy Sciences (Fort Washington, Pa.) Hamilton glass syringes (100 microliter, 250 microliter, 500 microliter) were from Fisher Scientific (Pittsburgh, Pa.). Silicone stoppers and other glassware were also from Fisher Scientific.\nAll of a retinoic acid ampule (100 mg ) was poured into a 2 ml shell vial and stoppered with a silicon stopper. Using a 500 microliter Hamilton syringe, 500 microliters of THF was added to the vial and then shaken by hand.\na. 25 mg ampule of retinol was poured into a 2 ml shell vial and it soluabilized completely in 250 microliters of THF.\nb. 100 mg ampule of retinol was poured into a vial and it soluabilized completely in 0.5 ml of THF.\nc. 100 mg ampule of retinol was poured into a vial and it soluabilized completely in 0.1 ml THF.\n20 microliters THF from a Hamilton syringe was added to an ampule containing 1 mg of 9-cis retinoic acid. It appeared that complete soluability was achieved.\nA 100 mg ampule of retinal was emptied into a 2 ml shell vial, and was completely soluabilized with hand shaking in 100 microliters of THF."}, "[4]": {"test_system": "right calf of a health professional", "settings": "in vivo", "from_the_text": "Retinol, retinal, and retinoic acid, were each soluabilized in THF as described above and used as follows. A fingertip amount of each (e.g. retinoic acid, retinol retinal?) was rubbed into the right calf of a health professional."}, "[5]": {"test_system": "intra-abdominal sepsis in a rat model", "settings": "dietary supplementation; beta-carotene 90 mg/kg; cited from earlier work"}, "[6]": {"test_system": "human with male pattern baldness", "assay": "Topical use in human male pattern baldness", "format": "in vivo", "settings": "in THF, applied daily to thinning vertex; within 4 months", "from_the_text": "A human with male pattern baldness applies retinol in THF daily to their thinning vertex."}, "[7]": {"assay": "Maximum concentration of beta-carotene dissolving in THF", "format": "physicochemical", "procedure": "The formulation broadly comprises from about 0.1 to about 9.3 mg and preferably from about 1 to about 6 mg of beta-carotene per ml of tetrahydrofuran. The maximum concentration of beta-carotene capable of dissolving in THF is 9.3 mg/ml. Solubility problems arise above this concentration of beta-carotene. Beta-carotene and derivatives thereof for use in the present invention is commercially available from Sigma Chemical Co. or Fisher Scientific Co."}, "[8]": {"test_system": "human melanoma cell cultures", "assay": "Beta-carotene treatment of melanoma cell cultures, Example 9", "format": "cell-based", "settings": "beta-carotene 33 mg/ml in medium, 0.5% THF, 7 days", "procedure": "Experiment: Beta-carotene in tetrahydrofuran (THF) was added to McCoy's 5A modified medium at a concentration of 33 mg/ml with a final concentration of 0.5% THF. This supplemented medium was added to Leighton tubes (containing melanoma cells) after removal of un-supplemented medium and was replaced every 2 days during the 7 day experimental period. At the end of 7 days, the cultures were fixed in methanol and the cover slips were Giemsa stained."}, "human hepatocytes": {"test_system": "human hepatocytes", "assay": "Absorption of beta-carotene in THF in human hepatocytes", "format": "in vitro ADME", "settings": "10 μM beta-carotene, 0.05% THF, 24 hours incubation; three samples", "procedure": "The following experiment was performed three times to determine the absorption of beta-carotene in THF in human hepatocytes.\nBeta-carotene was dissolved in a solution containing 99.9% (w/w) tetrahydrofuran (THF) with 0.025% (w/w) butylated hydroxytoluene (BHT) to obtain a 2000× (20 mM) stock solution. While the incubation media was rapidly stirred, the stock solution was added to create a final 1× dosing solution containing 10 μM beta-carotene and 0.05% THF.\nHepatocytes were isolated and cryopreserved according to the methods described in Li, A. P., et al., Isolation and culturing of hepatocytes from human liver, J. Tiss. Culture Methods, 14:139-146(1992); Li rat and human hepatocytes as multicellular spheroids, In Vitro Cell. Dev. Biol., 28A:673-677 (1992); and Loretz, L. J. et al., Promutagen activation by freshly isolated and cryopreserved rat hepatocytes, Environ. Mol. Mutag., 12(3):335-341. Portions of liver tissue were processed into hepatocytes by collagenase-based digestion of connective tissue, followed by manual and mechanical separation and washing with media. Isolated hepatocytes were counted to determine yield, and viability was measured using Trypan Blue™ exclusion. The viability of the cells was 90%. The cells were resuspended in the plating media described above at a density of 0.7×10^6 cells/mL. […]"}, "[9]": {"settings": "beta-carotene 33 mg/ml, 0.5% THF, after 7 days of guanosine 3 mg/ml"}}}
{"molecule": "Nc1nc2c(ncn2[C@@H]2O[C@H](CO)[C@@H](O)[C@H]2O)c(=O)[nH]1", "note": "[guanosine, Guanosine]", "values": [{"measurement": "phenotypic changes in the overall cell population", "setting": "[1]; guanosine 3 mg/ml in medium", "value": "many cells with an increased nuclear to cytoplasmic ratio"}]}
{"molecule": "CC1=C(/C=C/C(C)=C\\C=C\\C(C)=C\\C(=O)O)C(C)(C)CCC1", "note": "[9-cis retinoic acid]", "values": [{"measurement": "soluability in THF", "setting": "[2]", "value": "about 100 mg/ml THF"}, {"measurement": "soluability in THF", "setting": "[3]", "value": "at least 50 mg/ml THF"}]}
{"molecule": "CC1=C(/C=C/C(C)=C/C=C/C(C)=C/C(=O)O)C(C)(C)CCC1", "note": "[retinoic acid]", "values": [{"measurement": "signs of toxicity, topically or systemically", "setting": "[4]", "value": "no signs of toxicity"}]}
{"molecule": "Vitamin A", "values": [{"measurement": "protective effect on intra-abdominal sepsis", "setting": "[5]", "value": "significant protective effect"}]}
{"molecule": "CC1=C(/C=C/C(C)=C/C=C/C(C)=C/C=O)C(C)(C)CCC1", "note": "[retinal]", "values": [{"measurement": "soluability in THF", "setting": "[2]", "value": "about 1 gm/ml THF"}, {"measurement": "soluability in THF", "setting": "[3]", "value": "about 1 gm/ml THF"}, {"measurement": "signs of toxicity, topically or systemically", "setting": "[4]", "value": "no signs of toxicity"}]}
{"molecule": "CC1=C(/C=C/C(C)=C/C=C/C(C)=C/CO)C(C)(C)CCC1", "note": "[retinol]", "values": [{"measurement": "soluability in THF", "setting": "[2]", "value": "about 1 gm/ml THF"}, {"measurement": "soluability in THF", "setting": "[3]", "value": "about 1 gm/ml THF"}, {"measurement": "new hair growth (hair counts, investigator and patient assessment)", "setting": "[6]", "value": "significant new hair growth"}, {"measurement": "signs of toxicity, topically or systemically", "setting": "[4]", "value": "no signs of toxicity"}]}
{"molecule": "CC1=C(/C=C/C(C)=C/C=C/C(C)=C/C=C/C=C(C)/C=C/C=C(C)/C=C/C2=C(C)CCCC2(C)C)C(C)(C)CCC1", "note": "[beta-carotene]", "values": [{"measurement": "cell death in culture", "setting": "[1]; [9]", "value": "did not cause the extensive cell death"}, {"measurement": "morphology of the surviving cells", "setting": "[1]; [9]", "value": "most of those had a neuronal morphology"}, {"measurement": "maximum concentration of beta-carotene capable of dissolving in THF", "setting": "[7]", "value": 9.3, "unit": "mg/mL"}, {"measurement": "cell death in culture compared with control cultures", "setting": "[8]", "value": "a large segment of the starting population died"}, {"measurement": "morphology of the remaining cells", "setting": "[8]; Giemsa stained", "value": "most had triangular morphology and a large nucleus, consistent with neural cells, or were fusiform in shape"}, {"measurement": "protective effect on intra-abdominal sepsis", "setting": "[5]", "value": "lesser effect"}, {"measurement": "detection of beta-carotene in the cells (dark regions, light microscope)", "setting": "human hepatocytes", "value": "presence of beta-carotene in the cells"}]}
